Assay results as given in ChEMBL document CHEMBL1149227, “The discovery of structurally novel CCR1 antagonists derived from a hydroxyethylene peptide isostere template” (Bioorg Med Chem Lett, 2004).

Assays:
[1] = target: T1, C-C chemokine receptor type 1 (Homo sapiens, UniProt P32246); assay: Inhibition of CCL3 binding to C-C chemokine receptor type 1
T1 sequence (P32246 whole entry): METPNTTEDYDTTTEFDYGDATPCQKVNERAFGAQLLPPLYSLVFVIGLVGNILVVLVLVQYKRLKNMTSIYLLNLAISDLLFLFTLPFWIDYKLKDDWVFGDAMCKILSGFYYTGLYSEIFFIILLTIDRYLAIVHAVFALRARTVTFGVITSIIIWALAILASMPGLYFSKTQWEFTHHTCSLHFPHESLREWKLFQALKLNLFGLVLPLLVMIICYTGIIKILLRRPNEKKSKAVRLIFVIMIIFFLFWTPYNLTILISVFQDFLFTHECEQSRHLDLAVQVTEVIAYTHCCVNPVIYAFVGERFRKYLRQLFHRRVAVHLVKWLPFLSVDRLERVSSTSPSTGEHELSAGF

[2] = test system: THP-1; assay: Inhibition of CCL5 induced chemotaxis in THP-1 cells; assay type: functional, cell-based; settings: Homo sapiens
[3] = target: T2, Renin (Rattus norvegicus, UniProt P08424); assay: Inhibitory activity of compound against renin was determined
T2 sequence (P08424 whole entry): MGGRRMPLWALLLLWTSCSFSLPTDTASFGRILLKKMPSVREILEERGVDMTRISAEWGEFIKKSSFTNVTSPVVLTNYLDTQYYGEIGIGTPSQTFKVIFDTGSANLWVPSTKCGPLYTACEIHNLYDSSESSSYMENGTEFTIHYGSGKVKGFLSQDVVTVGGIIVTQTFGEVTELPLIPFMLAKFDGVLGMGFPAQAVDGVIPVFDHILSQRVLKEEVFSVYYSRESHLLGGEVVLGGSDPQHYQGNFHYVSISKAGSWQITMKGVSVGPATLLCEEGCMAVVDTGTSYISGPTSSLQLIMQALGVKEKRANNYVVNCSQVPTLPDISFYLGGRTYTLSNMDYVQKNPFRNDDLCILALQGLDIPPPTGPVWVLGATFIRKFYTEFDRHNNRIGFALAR

[4] = test system: THP-1; assay: (§1) Inhibition of CCL3 induced chemotaxis in THP-1 cells; inactive at a concentration of 25 uM; assay type: functional, cell-based; settings: Homo sapiens
[5] = test system: THP-1; assay: Inhibition of CCL3 induced chemotaxis in THP-1 cells; assay type: functional, cell-based; settings: Homo sapiens
[6] = test system: THP-1; assay: as §1; assay type: functional; settings: Homo sapiens

| IC50 [1] [µM] | IC50 [4] [µM] | SMILES | further results |
| --- | --- | --- | --- |
|  | < 50 | CNC(=O)[C@H](CC(C)C)C[C@@H](O)[C@@H](CC1CCCCC1)NC(=O)c1cnc2ccccc2c1 |  |
|  | > 25 | CNC(=O)[C@H](CC(C)C)C[C@@H](O)[C@H](CC1CCCCC1)NC(=O)c1cnc2ccccc2c1 |  |
| 30 |  | CNC(=O)[C@@H](CC(C)C)C[C@H](O)[C@H](CC1CCCCC1)NC(=O)c1cnc2ccccc2c1 | IC50 [5]: 12 µM |
|  | < 50 | CNC(=O)[C@@H](CC(C)C)C[C@H](O)[C@@H](CC1CCCCC1)NC(=O)c1cnc2ccccc2c1 |  |
| 2.3 |  | CNC(=O)[C@H](CC(C)C)C[C@H](O)[C@H](CC1CCCCC1)NC(=O)c1cnc2ccccc2c1 | IC50 [2]: 0.63 µM; IC50 [3]: > 10 µM |
| 15 | < 50 | CNC(=O)[C@@H](CC(C)C)C[C@@H](O)[C@@H](CC1CCCCC1)NC(=O)c1cnc2ccccc2c1 |  |

More lines, now with the values behind:

| SMILES | IC50 [1] [µM] | IC50 [4] [µM] | further results |
| --- | --- | --- | --- |
| C=C(Cl)C[C@H](C[C@H](O)[C@H](CC1CCCCC1)NC(=O)c1cc2cc(Cl)ccc2[nH]1)C(=O)NC | > 32 |  | IC50 [2]: > 25 µM; IC50 [3]: 0.041 µM |
| CNC(=O)[C@H](CC(C)C)C[C@H](O)[C@H](CC(C)C)NC(=O)c1cnc2ccccc2c1 | 11.8 |  |  |
| CNC(=O)[C@H](CC(C)C)C[C@H](O)[C@@H](CC1CCCCC1)NC(=O)c1cnc2ccccc2c1 |  |  | inhibition at 25 µM [6]: < 50% |
| CC(C)C[C@H](C[C@H](O)[C@H](CC1CCCCC1)NC(=O)c1cnc2ccccc2c1)C(N)=O | 8 |  | IC50 [5]: 6.3 µM |
| CNC(=O)[C@@H](CC(C)C)C[C@@H](O)[C@H](CC1CCCCC1)NC(=O)c1cnc2ccccc2c1 |  |  | IC50 [5]: 7.7 µM |
| CNC(=O)[C@H](CC(C)C)C[C@H](O)[C@H](Cc1ccccc1)NC(=O)c1cnc2ccccc2c1 | 0.65 |  |  |
| CNC(=O)[C@H](CC(C)C)C[C@H](O)[C@H](CC1CCCCC1)NS(=O)(=O)c1cnc2ccccc2c1 |  | < 50 |  |
| CC[C@H](C)[C@H](NC(=O)c1cnc2ccccc2c1)[C@@H](O)C[C@@H](CC(C)C)C(=O)NC |  | < 50 |  |
| CC(C)C[C@H](C[C@H](O)[C@H](CC1CCCCC1)NC(=O)c1cnc2ccccc2c1)C(=O)N(C)C |  | < 50 |  |
